These results are taken from ChEMBL document CHEMBL1150027, “Apigenin-7-O--D-glucopyranoside, an anti-HIV principle from Kummerowia striata” (Bioorg Med Chem Lett, 1994).

In brackets after ≈: the same amount, converted by molar mass.

As a reminder, the EC50 is the concentration that produces a half-maximal response. Read a low EC50 as an effect from little substance. The IC50 is the concentration that gives 50% inhibition. Low values mean higher potency, high ones lower potency.

The test system of data set [1] is H9. The data set is described as follows: Inhibitory activity against HIV-1 IIIB replication in H9 cell line. The format is functional, cell-based. Conditions: Homo sapiens.
Data set [2] deals with H9. Kind of data set: Inhibitory activity against H9 cells uninfected with HIV-1. The format is functional, cell-based. The settings on record: Homo sapiens.
The nature of data set [3]: Ratio of IC50 to EC50 was expressed as therapeutic index. The settings on record: read-out: TI.

In turn, `O=c1cc(-c2ccc(O)cc2)oc2cc(O)cc(O)c12` [APIGENIN] registered an EC50 in the data set with H9 [1] of 9 µg/mL (≈ 33.3 µM). In the data set on H9 [2], this compound showed an IC50 of 35 µg/mL (≈ 130 µM). For the same compound, the selectivity ratio in data set [3] came to 4.

As to `O=c1cc(-c2ccc(O)cc2)oc2cc(O[C@@H]3O[C@H](CO)[C@@H](O)[C@H](O)[C@H]3O)cc(O)c12` [APIGETRIN], the EC50 with H9 [1] stood at 1.8 µg/mL (≈ 4.16 µM). Further, the IC50 with H9 [2] is > 100 µg/mL. Besides, the selectivity ratio in data set [3] is > 55.6.

For the compound `O=c1c(O[C@@H]2O[C@H](CO)[C@@H](O)[C@H](O)[C@H]2O)c(-c2ccc(O)cc2)oc2cc(O)cc(O)c12` [ASTRAGALIN], in the data set with H9 [1], the concentration for a half-maximal effect (EC50) was 80 µg/mL (≈ 178 µM). For the same compound, the IC50 in the data set with H9 [2] was < 100 µg/mL. Also, the selectivity ratio in data set [3] was < 1.25.

`O=c1c(O)c(-c2ccc(O)c(O)c2)oc2cc(O)cc(O)c12` [QUERCETIN] returned an EC50 in the data set with H9 [1] of 1.6 µg/mL (≈ 5.29 µM). Moreover, the IC50 in the data set with H9 [2] is < 4 µg/mL. Also, the selectivity ratio in data set [3] is < 2.5.
